Laboratory results reported in ChEMBL document CHEMBL5120826, “Effects of β-lapachone and β-nor-lapachone on multidrug efflux transporters and biofilms of Candida glabrata” (Bioorg Med Chem, 2022).
Converted amounts (≈) assume the structure as drawn. The source made the active and inactive calls. The calls are words filed in the database; no cut-off is given here.

Tests used:
[1] = tested on: Nakaseomyces glabratus; experiment: Induction of morphological changes in fluconazole resistant Candida glabrata 109 overexpressing CgCdr1p transporter assessed as decrease in cell-cell adhesion at 200 ug/ml by calcofluor white dye based confocal laser scanning microscopy; type: functional, organism-based; conditions: dose 200.0 µg/ml
[2] = tested on: Nakaseomyces glabratus; experiment: Additive antifungal activity against fluconazole resistant Candida glabrata 109 overexpressing CgCdr1p transporter assessed as reduction in fungal growth incubated for 48 hrs in presence of fluconazole by checkboard assay based microplate reader analysis; type: functional
[3] = tested on: Nakaseomyces glabratus; experiment: Additive antifungal activity against fluconazole resistant Candida glabrata 109 overexpressing CgCdr1p transporter assessed as fractional inhibitory concentration incubated for 48 hrs in presence of lapachone by checkboard assay based microplate reader analysis; type: functional
[4] = tested on: Nakaseomyces glabratus; experiment: Indifferent antifungal activity against fluconazole sensitive Candida glabrata ATCC 2001 assessed as fractional inhibitory concentration incubated for 48 hrs in presence of lapachone by checkboard assay based microplate reader analysis; type: functional
[5] = tested on: Nakaseomyces glabratus; experiment: Induction of ROS generation in fluconazole resistant Candida glabrata 109 overexpressing CgCdr1p transporter assessed as fold increase in ROS production at 200 ug/ml incubated for 48 hrs by DCFH-DA dye based fluorescence assay; type: functional
[6] = tested on: Nakaseomyces glabratus; experiment: Additive antifungal activity against fluconazole resistant Candida glabrata 109 overexpressing CgCdr1p transporter assessed as reduction in fungal growth incubated for 48 hrs in presence of lapachone by checkboard assay based microplate reader analysis; type: functional
[7] = tested on: Saccharomyces cerevisiae; experiment: Induction of ROS generation in fluconazole resistant Saccharomyces cerevisiae overexpressing CgCdr1p transporter assessed as fold increase in ROS level incubated for 90 mins by DCFH-DA dye based fluorescence assay; type: functional; conditions: 1.5 h
[8] = tested on: Saccharomyces cerevisiae; experiment: Inhibition of fluconazole resistant Saccharomyces cerevisiae overexpressing CgCdr1p transporter ATPase activity assessed as reduction in inorganic phosphate release in presence of ATP incubated for 1 hr by Fiske and Sub barrow method; conditions: concentration not given here
[9] = tested on: Nakaseomyces glabratus; experiment: Antifungal activity against fluconazole sensitive Candida glabrata ATCC 2001 assessed as reduction in fungal growth incubated for 48 hrs by checkboard assay based microplate reader analysis; type: functional
[10] = tested on: Saccharomyces cerevisiae; experiment: Antifungal activity against fluconazole resistant Saccharomyces cerevisiae overexpressing CgCdr1p transporter assessed as reduction in fungal growth incubated for 48 hrs by checkboard assay based microplate reader analysis; type: functional
[11] = tested on: Saccharomyces cerevisiae; experiment: Induction of ROS generation in fluconazole resistant Saccharomyces cerevisiae overexpressing CgCdr2p transporter assessed as fold increase in ROS level incubated for 90 mins by DCFH-DA dye based fluorescence assay; type: functional; conditions: 1.5 h
[12] = tested on: Nakaseomyces glabratus; experiment: Induction of morphological changes in fluconazole resistant Candida glabrata 109 overexpressing CgCdr1p transporter assessed as decrease in biofilm thickness at 200 ug/ml by calcofluor white dye based confocal laser scanning microscopy; type: functional, organism-based; conditions: dose 200.0 µg/ml
[13] = tested on: Nakaseomyces glabratus; experiment: Indifferent antifungal activity against fluconazole resistant Candida glabrata 109 overexpressing CgCdr1p transporter assessed as reduction in fungal growth incubated for 48 hrs in presence of fluconazole by checkboard assay based microplate reader analysis; type: functional
[14] = tested on: Nakaseomyces glabratus; experiment: Antifungal activity against fluconazole resistant Candida glabrata 109 overexpressing CgCdr1p transporter assessed as reduction in fungal growth incubated for 48 hrs by checkboard assay based microplate reader analysis; type: functional
[15] = tested on: Nakaseomyces glabratus; experiment: Effect on efflux pump function in fluconazole resistant Candida glabrata 109 overexpressing CgCdr1p transporter assessed as accumulation of Nile red fluorescence incubated for 1 hr by fluorescence based assay; type: functional
[16] = Inhibition of fluconazole sensitive Candida glabrata ATCC 2001 […] cell adhesion to polystyrene at 200 ug/ml incubated for 90 mins by MTT assay; type: functional; conditions: Nakaseomyces glabratus, ATCC 2001, 1.5 h
[17] = tested on: Saccharomyces cerevisiae; experiment: Antifungal activity against fluconazole resistant Saccharomyces cerevisiae overexpressing CgCdr1p transporter assessed as reduction in fungal growth incubated for 48 hrs in presence of fluconazole by serial dilution method; type: functional, organism-based
[18] = tested on: Nakaseomyces glabratus; experiment: Antibiofilm activity against fluconazole resistant Candida glabrata 109 overexpressing CgCdr1p transporter assessed as inhibition of biofilm formation at 200 ug/ml incubated for 48 hrs; type: functional
[19] = tested on: Saccharomyces cerevisiae; experiment: Synergistic antifungal activity against fluconazole resistant Saccharomyces cerevisiae overexpressing CgCdr2p transporter assessed as fractional inhibitory concentration index incubated for 48 hrs by checkboard assay based microplate reader analysis; type: functional
[20] = tested on: Nakaseomyces glabratus; experiment: Antifungal activity against fluconazole resistant Candida glabrata 109 overexpressing CgCdr1p transporter assessed as reduction in fungal growth incubated for 48 hrs in presence of fluconazole by serial dilution method; type: functional, organism-based
[21] = tested on: Nakaseomyces glabratus; experiment: Indifferent antifungal activity against fluconazole resistant Candida glabrata 109 overexpressing CgCdr1p transporter assessed as reduction in fungal growth incubated for 48 hrs by checkboard assay based microplate reader analysis; type: functional
[22] = tested on: Nakaseomyces glabratus; experiment: Induction of morphological changes in fluconazole resistant Candida glabrata 109 overexpressing CgCdr1p transporter assessed as decrease in cellular density at 200 ug/ml by calcofluor white dye based confocal laser scanning microscopy; type: functional, organism-based; conditions: dose 200.0 µg/ml
[23] = tested on: Saccharomyces cerevisiae; experiment: Antifungal activity against fluconazole resistant Saccharomyces cerevisiae overexpressing CgCdr1p transporter assessed as reduction in fungal growth at lower concentration incubated for 48 hrs by serial dilution method; type: functional, organism-based
[24] = tested on: Nakaseomyces glabratus; experiment: Additive antifungal activity against fluconazole resistant Candida glabrata 109 overexpressing CgCdr1p transporter assessed as fractional inhibitory concentration incubated for 48 hrs in presence of fluconazole by checkboard assay based microplate reader analysis; type: functional
[25] = tested on: Nakaseomyces glabratus; experiment: Antibiofilm activity against fluconazole sensitive Candida glabrata ATCC 2001 assessed as reduction in metabolic activity up to 200 ug/ml incubated for 48 hrs; type: functional; set-up: scale not given: the % may be the effect or the level left; conditions: dose <= 200 µg/ml, up to 200 µg/mL
[26] = tested on: Nakaseomyces glabratus; experiment: Additive antifungal activity against fluconazole resistant Candida glabrata 109 overexpressing CgCdr1p transporter assessed as fractional inhibitory concentration index incubated for 48 hrs by checkboard assay based microplate reader analysis; type: functional
[27] = tested on: Saccharomyces cerevisiae; experiment: Effect on efflux pump function in fluconazole resistant Saccharomyces cerevisiae overexpressing CgCdr2p transporter assessed as accumulation of Nile red fluorescence incubated for 1 hr by fluorescence based assay; type: functional
[28] = tested on: Nakaseomyces glabratus; experiment: Indifferent antifungal activity against fluconazole sensitive Candida glabrata ATCC 2001 assessed as fractional inhibitory concentration index incubated for 48 hrs by checkboard assay based microplate reader analysis; type: functional
[29] = tested on: Nakaseomyces glabratus; experiment: Indifferent antifungal activity against fluconazole resistant Candida glabrata 109 overexpressing CgCdr1p transporter assessed as fractional inhibitory concentration index incubated for 48 hrs by checkboard assay based microplate reader analysis; type: functional
[30] = tested on: Saccharomyces cerevisiae; experiment: Antifungal activity against fluconazole resistant Saccharomyces cerevisiae overexpressing CgCdr2p transporter assessed as reduction in fungal growth incubated for 48 hrs by checkboard assay based microplate reader analysis; type: functional
[31] = tested on: Nakaseomyces glabratus; experiment: Antibiofilm activity against fluconazole sensitive Candida glabrata ATCC 2001 assessed as inhibition of biofilm formation at 200 ug/ml incubated for 48 hrs; type: functional
[32] = tested on: Nakaseomyces glabratus; experiment: Indifferent antifungal activity against fluconazole sensitive Candida glabrata ATCC 2001 assessed as reduction in fungal growth incubated for 48 hrs in presence of lapachone by checkboard assay based microplate reader analysis; type: functional
[33] = tested on: Nakaseomyces glabratus; experiment: Induction of ROS generation in fluconazole resistant Candida glabrata 109 overexpressing CgCdr1p assessed as fold increase in ROS level incubated for 90 mins by DCFH-DA dye based fluorescence assay; type: functional; conditions: 1.5 h
[34] = tested on: Nakaseomyces glabratus; experiment: Indifferent antifungal activity against fluconazole sensitive Candida glabrata ATCC 2001 assessed as reduction in fungal growth incubated for 48 hrs in presence of fluconazole by checkboard assay based microplate reader analysis; type: functional

| Compound | Activity [1] | MIC [2] [mg/L] | FIC [3] [µg/mL] | FIC [4] [µg/mL] | MIC [6] [mg/L] | fold change (FC) [7] | inhibition [8] [%] | MIC [9] [mg/L] | MIC [10] [mg/L] | fold change (FC) [11] | Activity [12] | MIC [13] [mg/L] | MIC [14] [mg/L] | Activity [15] [%] | inhibition at 200 µg/mL [16] [%] | Activity [17] | inhibition at 200 µg/mL [18] [%] | fractional inhibitory concentration index (FICI) [19] | Activity [20] | MIC [21] [mg/L] | other results |
| --- | --- | --- | --- | --- | --- | --- | --- | --- | --- | --- | --- | --- | --- | --- | --- | --- | --- | --- | --- | --- | --- |
| CC1(C)CC2=C(O1)c1ccccc1C(=O)C2=O [NOR-BETA-LAPACHONE] | Active | 31.2 | 0.5 | 1 | 50 | 3 | 25 | 15.6 (≈ 68.3 µM) | 50 (≈ 219 µM) | 3 | Active | > 1000 | 100 (≈ 438 µM) | 100 | 28 | Active | 48 | 0.37 | Active | > 200 | Activity ([5]; dose 200.0 µg/ml): Active; Activity [22]: Active; Activity [23]: Active; FIC [24]: 0.125 µg/mL; Activity [25]: 81%; fractional inhibitory concentration index (FICI) [26]: 0.625; Activity [27]: 50%; fractional inhibitory concentration index (FICI) [28]: 2; fractional inhibitory concentration index (FICI) [29]: 2; MIC [30]: 25 mg/L (≈ 110 µM); inhibition at 200 µg/mL [31]: 70%; MIC [32]: 100 mg/L; fold change (FC) [33]: 5; MIC [34]: 15.6 mg/L |
| CC1(C)CCC2=C(O1)c1ccccc1C(=O)C2=O [LAPACHONE] | Active | 31.2 | 0.5 | 1 | 12.5 | 3 | 76 | 12.5 (≈ 51.6 µM) | 100 (≈ 413 µM) | 3 | Active | > 1000 | 25 (≈ 103 µM) | 35 | 55 | Active | 72 | 0.31 | Active | > 200 | fold change (FC) ([5]; dose 200 µg/ml): 16; Activity [22]: Active; Activity [23]: Active; FIC [24]: 0.125 µg/mL; Activity [25]: 93%; fractional inhibitory concentration index (FICI) [26]: 0.625; Activity [27]: 50%; fractional inhibitory concentration index (FICI) [28]: 2; fractional inhibitory concentration index (FICI) [29]: 2; MIC [30]: 25 mg/L (≈ 103 µM); inhibition at 200 µg/mL [31]: 95%; MIC [32]: 12.5 mg/L; fold change (FC) [33]: 5; MIC [34]: 15.6 mg/L |
